In one data set the test system is melanoma metastasis. The settings on record: cited from earlier work; for blocking of tumor metastasis: side-by-side equimolar comparison, 5 μM.
A short description of data set [1]: Toxicity: serum AST, ALT, BUN. It counts as in vivo. The conditions noted are these: 5 μM twice weekly for 3 weeks, mice. Here is the method: Serum levels of aspartate aminotransferase (AST) and alanine aminotransferase (ALT) were measured using serologic assays to measure hepatic toxicity. Serum levels of blood urea nitrogen (BUN) were monitored to detect kidney damage.
Toxicity—Blood, bone marrow, and tissue levels of CXCL12 were measured using a commercially available sandwich ELISA assay (20-22). The ELISA will detect both endogenous and exogenous CXCL12. Toxicity is monitored using histopathologic assessment of heart, and kidney, and serum assays of hepatic (e.g. AST, ALT, AP) and kidney (e.g. BUN, creatinine) biomarkers, using standard veterinary assays. […] Published data (Roy et al., 2014) indicate twice weekly injection of 5 μM chemokine protein is well tolerated, with no change in body weight or appearance after 120 days in tumor xenografted mice.

Data set [2] relates to 5T33 multiple myeloma cells. Kind of data set: Mobilization of GFP-tagged 5T33 multiple myeloma cells into the blood. The conditions noted are these: 50 μM subcutaneous, 1 hour, GFP+ cells by flow cytometry. It counts as in vivo, mice. As for the experimental part: Representative flow cytometry plots are on the left measuring side scatter counts (SSC) and GFP+-5T33 multiple myeloma cells in the circulation before and after treatment shown in the right panels. n=5 mice per treatment group.
This mobilization is compared to the mobilization following administration of AMD3100. Mice bearing GFP-tagged 5T33 multiple myeloma cells were bled immediately prior to subcutaneous injection of either the CXCL12 locked dimer (50 μM) or AMD3100 (4 mM). Individual mice were re-bled 1-hour later and GFP+ myeloma tumor cells in peripheral circulation quantified by flow cytometry. Representative flow cytometry plots are on the left with GFP+-5T33 multiple myeloma cells in the circulation before and after treatment shown in the right panels. n=5 mice per treatment group.

A short description of data set [3]: Translational diffusion measurements (dimerisation state). The data set is classed as physicochemical. The source says:
The lines connecting the cysteines show where the intra-and intermolecular disulfide bonds are. A) CXCL12-α2 locked dimer amino acid sequence with the conserved intramolecular disulfide bonds (black lines) and the engineered intermolecular disulfide bonds (red lines) illustrated. B) SDS-PAGE of CXCL12-αand CXCL12-α2 treated with and without dithiothreitol (DTT). […] D) N-terminal peptides corresponding to the first thirty-eight amino acids of CXCR4 are illustrated. The sequence for p38 is identical to that of CXCR4 except for an additional N-terminal Gly-Ser dipeptide (cloning artifact) and the C28A substitution (green) introduced to prevent oxidative peptide dimer formation. The sulfated peptides are identical to p38 except for the inclusion of sulfotyrosine at position 21 for p38-sY1 and at positions 7, 12 and 21 for p38-sY3.

The next data set has as its system CD34+CXCR4+ stem cells. Kind of data set: Mobilization of CD34+CXCR4+ hematopoietic stem cells. It counts as in vivo, mice. As for the experimental part: (§1) FIGS. 6A-6C show mobilization of lymphocytes into the peripheral blood (A) and out of the bone marrow (B) 1 hour after subcutaneous injection of 5 μM (0.8 mg/kg) CXCL12 locked dimer 104 or 4000 μM (20 mg/kg) plerixafor/AMD3100 102. Control mice received an injection of the chemokine vehicle (Veh), sterile PBS 100. Values are mean±SEM, n=3-4 mice per group. Asterisks (****)=[…].
FIGS. 8A-8C show mobilization of hematopoietic stem cells by the CXCL12 locked dimer. Mice were bled (baseline) prior to subcutaneous injection of LD at a final concentration of 5 μM. Mice were re-bled 15-minutes (FIG. 8A), 2-hours (FIG. 8B) or 4-hours (FIG. 8C) later. Two separate cohorts of mice (shown by circles and squares) were treated (n=3 per group) and show consistent increases in the number of CD34+ stem cells in the circulation.
After blood collection, treated and control mice were sacrificed and the bone marrow of each femur flushed with PBS. […] Peripheral and bone marrow immunocytes were incubated with fluorescence-tagged antibodies to detect the HSC markers CD34, CD11, SCA1, CD90, CD38, Lin and CXCR4, or the T cell and B cell markers CD3 and CD19, respectively.
FIGS. 8A-8C also show mobilization of hematopoietic stem cells by the CXCL12 locked dimer. […] Levels of CD34+CXCR4+ stem cells within circulating blood were detected and quantified using multiparametric flow cytometry.

The target in data set [4] is T1, CXCR4 (Homo sapiens, UniProt P61073). The conditions noted are these: 10 nM CXCL12 variants, with or without pertussis toxin; cited from earlier work.
For data set [5] the following is noted: relative to natural CXCL12; cited from earlier work.
The nature of another data set: Heparin binding. The source says: Further, in addition to binding CXCR4, CXCL12 also binds to heparin found in the extracellular matrix on cell surfaces. […] Amino acid substitutions in CXCL12, including K24S, K27S, or K24S/K27S can prevent heparin binding and increase the half-life of CXCL12 in vivo; therefore, similar mutations in CXCL12-α2 would likely prevent heparin binding and increase the in vivo half-life of the dimer.

The subject of another data set is lymphocytes. Put plainly: Mobilization of lymphocytes into peripheral blood and out of bone marrow. It counts as in vivo, mice. Here is the method:
as §1
The chemokine CXCL12 is produced by bone marrow stromal cells (17). A single dose infusion of plerixafor/AMD3100 competitively antagonizes CXCR4 to disrupt stromal CXCL12 interactions with bone marrow cells, mobilizing HSC to enter into the peripheral blood (6). […] Importantly, the 5 μM the CXCL12 locked dimer dose used is the same concentration we have used to block tumor metastasis in vivo and where plerixafor/AMD3100 is ineffective (FIGS. 5A-5B).
After blood collection, treated and control mice were sacrificed and the bone marrow of each femur flushed with PBS. Peripheral blood and marrow samples were centrifuged (1800×g for 15 min at room temperature), the plasma removed, and the leukocytes in the buffy coat collected, an aliquot used to enumerate the total cell population using hemocytometry, and the remaining cells transferred to flow cytometry tubes. Peripheral and bone marrow immunocytes were incubated with fluorescence-tagged antibodies to detect the HSC markers CD34, CD11, SCA1, CD90, CD38, Lin and CXCR4, or the T cell and B cell markers CD3 and CD19, respectively.
Control mice received an injection of the chemokine vehicle (Veh), sterile PBS 100. Values are mean ±SEM, n=3-4 mice per group. Asterisks (****)=P≤0.001.

The target of data set [6] is T1, CXCR4. The settings on record: 125I-CXCL12 displacement; read-out: Kd for binding CXCR4; cited from earlier work.
Setting [7] is: fitted, 20 mM sodium phosphate pH 7.4.

T1 sequence (P61073 whole entry): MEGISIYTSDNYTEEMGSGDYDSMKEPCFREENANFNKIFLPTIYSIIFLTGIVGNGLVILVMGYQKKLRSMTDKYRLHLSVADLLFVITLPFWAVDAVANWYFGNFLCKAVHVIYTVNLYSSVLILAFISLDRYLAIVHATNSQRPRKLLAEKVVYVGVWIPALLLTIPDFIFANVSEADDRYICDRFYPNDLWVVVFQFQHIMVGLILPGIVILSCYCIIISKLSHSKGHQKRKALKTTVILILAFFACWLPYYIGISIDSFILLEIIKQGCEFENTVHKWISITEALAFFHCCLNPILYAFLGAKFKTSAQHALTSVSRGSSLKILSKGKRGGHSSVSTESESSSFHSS

For the molecule “CXCL12 locked dimer: covalently locked dimer comprising two CXCL12 L36C/A65C sequences (SEQ ID NO: 1), linked by intermolecular disulfide bonds”, in the data set with melanoma metastasis (dose response), the “inhibition of melanoma metastasis” value is given as “dose dependently inhibits melanoma metastasis”. Also, in the data set with melanoma metastasis (equimolar concentrations), the “melanoma metastasis, comparison with plerixafor/AMD3100” value is “more effective than plerixafor/AMD3100”. Besides, in the data set on melanoma metastasis, the “blocking of tumor metastasis” value is reported as “blocked tumor metastasis”. In data set [1], the “hepatic or kidney toxicity (AST, ALT, BUN)” value was “little hepatic or kidney toxicity”. Besides, in data set [2], the “mobilization of multiple myeloma cells into the blood” value is given as “mobilizes multiple myeloma cells into the blood”. In addition, in data set [3] (10, 50 and 150 μM protein), the “Diffusion coefficient Ds” value is listed as 1.08-1.09 ×10^−6 cm^2s^−1. Moreover, the “number of CD34+ stem cells in circulation” value in the data set on CD34+CXCR4+ stem cells (5 μM s.c., 15 minutes, 2 hours or 4 hours, two cohorts) is listed as “consistent increases in the number of CD34+ stem cells in circulation”. Further, in the data set on CD34+CXCR4+ stem cells (FIG. 6C), the “mobilization of CXCR4+CD34+ hematopoietic stem cells (FIG. 6C)” value is “mobilization of CXCR4+CD34+ hematopoietic stem cells”. In the data set with CXCR4 [4], the “G protein dependent intracellular calcium flux” value is “activates the expected and prototypical G protein dependent intracellular calcium flux”. Moreover, in [5], the “stability against enzymatic digestion in serum” value is reported as “enhanced stability against enzymatic digestion in serum”. Moreover, the heparin binding entry in the data set “Heparin binding” is given as “also binds heparin”. In the data set with lymphocytes (5 μM, subcutaneous, 1 hour), the “bone marrow resident lymphocytes” value is reported as “concomitant decrease in bone marrow resident lymphocytes” and the “mobilization of hematopoietic cells into peripheral circulation” value is “potently stimulated mobilization of hematopoietic cells into peripheral circulation”. The “ability to mobilize lymphocytes, locked dimer vs AMD3100” value in the data set with lymphocytes (1 hour after s.c. 5 μM (0.8 mg/kg) locked dimer or 4000 μM (20 mg/kg) plerixafor/AMD3100) was “no statistical difference”. Besides, the “potency relative to plerixafor for mobilizing lymphocytes, mg/kg basis” value with lymphocytes (vs plerixafor) came out at 3 X. Besides, the “potency relative to plerixafor for mobilizing lymphocytes, molar basis” value in the data set with lymphocytes (vs plerixafor, also monocytes and neutrophils) was 1000 ×.
In the case of `c1cc(CN2CCCNCCNCCCNCC2)ccc1CN1CCCNCCNCCCNCC1` [plerixafor/AMD3100, plerixafor, reference compound], the “blocking of tumor metastasis” value with melanoma metastasis was “ineffective”.
Turning to “wild-type CXCL12: wild type CXCL12 chemokine (SEQ ID NO:3), natural ligand for CXCR4”, in data set [1], the “hepatic or kidney toxicity (AST, ALT, BUN)” value is listed as “little hepatic or kidney toxicity”. Further, in data set [3] (setting [7]), the “dimer Ds value” is reported as ~1.0 ×10^−6 cm^2s^−1 and the “pure monomer Ds value” was ~1.6 ×10^−6 cm^2s^−1. The “stability against enzymatic digestion in serum” value in [5] was “rapidly inactivated in serum”. Further, the Kd with CXCR4 [6] was 0.025 µM.

The record behind these values is patent US20210162009A1, “CHEMOKINE VARIANTS AS IMMUNE STIMULANTS” (THE MEDICAL COLLEGE OF WISCONSIN, INC., priority 2017, published 2021).
